Legend:
Test in all cases: relative viability (nuclei count vs DMSO), 5 days (fraction); higher = more cells survive
Zosuquidar + AZD7762 = compound: O[C@@H](COc1cccc2ncccc12)CN1CCN([C@@H]2c3ccccc3[C@@H]3[C@H](c4ccccc42)C3(F)F)CC1 [Zosuquidar] + NC(=O)Nc1cc(-c2cccc(F)c2)sc1C(=O)N[C@H]1CCCNC1 [AZD7762] (partner 0.2 µM)
In short: (§1)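 Each reported value is a median over duplicate plates. It expresses relative viability: treated-well nuclei count divided by vehicle-well nuclei count. Lung cancer cell lines in 1536-well plates were dosed by pin tool a day after seeding, alone with one drug or with a fixed anchor-drug dose plus five library-drug doses (not always all listed) in √10 steps, and nuclei were counted after 5 days.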

Zosuquidar + OSI-027 = compound: O[C@@H](COc1cccc2ncccc12)CN1CCN([C@@H]2c3ccccc3[C@@H]3[C@H](c4ccccc42)C3(F)F)CC1 [Zosuquidar] + COc1cccc2cc(-c3nc([C@H]4CC[C@H](C(=O)O)CC4)n4ncnc(N)c34)[nH]c12 [OSI-027] (partner 0.5 µM)
In short: as §1

Zosuquidar + Pemetrexed = compound: O[C@@H](COc1cccc2ncccc12)CN1CCN([C@@H]2c3ccccc3[C@@H]3[C@H](c4ccccc42)C3(F)F)CC1 [Zosuquidar] + Nc1nc2[nH]cc(CCc3ccc(C(=O)N[C@@H](CCC(=O)O)C(=O)O)cc3)c2c(=O)[nH]1 [Pemetrexed] (partner 0.2 µM)
In short: as §1

[1] = compound: COc1cc2nccc(Oc3ccc(NC(=O)C4(C(=O)Nc5ccc(F)cc5)CC4)cc3)c2cc1OC [Cabozantinib] + C[C@]1(O)C[C@@H](c2nc(-c3ccc4ccc(-c5ccccc5)nc4c3)c3c(N)nccn32)C1 [Linsitinib] (partner 1 µM)
In short: as §1

NCI-H1734
relative viability (Zosuquidar + AZD7762; first compound 0.01 µM): 0.526
relative viability (Zosuquidar + AZD7762; first compound 0.03162 µM): 0.515
relative viability (Zosuquidar + AZD7762; first compound 0.1 µM): 0.563
relative viability (Zosuquidar + AZD7762; first compound 0.3162 µM): 0.599
relative viability (Zosuquidar + AZD7762; first compound 1 µM): 0.514
relative viability (Zosuquidar + OSI-027; first compound 0.01 µM): 0.587
relative viability (Zosuquidar + OSI-027; first compound 0.03162 µM): 0.612
relative viability (Zosuquidar + OSI-027; first compound 0.1 µM): 0.541
relative viability (Zosuquidar + OSI-027; first compound 0.3162 µM): 0.697
relative viability (Zosuquidar + OSI-027; first compound 1 µM): 0.662
relative viability (Zosuquidar + Pemetrexed; first compound 0.01 µM): 0.366
relative viability (Zosuquidar + Pemetrexed; first compound 0.03162 µM): 0.382
relative viability (Zosuquidar + Pemetrexed; first compound 0.1 µM): 0.395
relative viability (Zosuquidar + Pemetrexed; first compound 0.3162 µM): 0.422
relative viability (Zosuquidar + Pemetrexed; first compound 1 µM): 0.447
relative viability ([1]; first compound 0.02 µM): 0.959
relative viability ([1]; first compound 0.06325 µM): 0.916
relative viability ([1]; first compound 0.2 µM): 0.929
relative viability ([1]; first compound 0.6325 µM): 0.831
relative viability ([1]; first compound 2 µM): 0.517

LOU-NH91
relative viability (Zosuquidar + AZD7762; first compound 0.01 µM): 0.761
relative viability (Zosuquidar + AZD7762; first compound 0.03162 µM): 0.807
relative viability (Zosuquidar + AZD7762; first compound 0.1 µM): 0.637
relative viability (Zosuquidar + AZD7762; first compound 0.3162 µM): 0.793
relative viability (Zosuquidar + AZD7762; first compound 1 µM): 0.74
relative viability (Zosuquidar + OSI-027; first compound 0.01 µM): 0.623
relative viability (Zosuquidar + OSI-027; first compound 0.03162 µM): 0.664
relative viability (Zosuquidar + OSI-027; first compound 0.3162 µM): 0.781
relative viability (Zosuquidar + OSI-027; first compound 1 µM): 0.713
relative viability (Zosuquidar + Pemetrexed; first compound 0.01 µM): 0.409
relative viability (Zosuquidar + Pemetrexed; first compound 0.03162 µM): 0.411
relative viability (Zosuquidar + Pemetrexed; first compound 0.1 µM): 0.448
relative viability (Zosuquidar + Pemetrexed; first compound 0.3162 µM): 0.423
relative viability (Zosuquidar + Pemetrexed; first compound 1 µM): 0.396
relative viability ([1]; first compound 0.02 µM): 0.928
relative viability ([1]; first compound 0.06325 µM): 1.09
relative viability ([1]; first compound 0.2 µM): 0.537
relative viability ([1]; first compound 0.6325 µM): 0.939
relative viability ([1]; first compound 2 µM): 0.95

NCI-H460
relative viability (Zosuquidar + AZD7762; first compound 0.01 µM): 0.54
relative viability (Zosuquidar + AZD7762; first compound 0.03162 µM): 0.571
relative viability (Zosuquidar + AZD7762; first compound 0.1 µM): 0.6
relative viability (Zosuquidar + AZD7762; first compound 0.3162 µM): 0.607
relative viability (Zosuquidar + AZD7762; first compound 1 µM): 0.509
relative viability (Zosuquidar + OSI-027; first compound 0.01 µM): 0.674
relative viability (Zosuquidar + OSI-027; first compound 0.03162 µM): 0.725
relative viability (Zosuquidar + OSI-027; first compound 0.1 µM): 0.522
relative viability (Zosuquidar + OSI-027; first compound 0.3162 µM): 0.788
relative viability (Zosuquidar + OSI-027; first compound 1 µM): 0.694
relative viability (Zosuquidar + Pemetrexed; first compound 0.01 µM): 0.0576
relative viability (Zosuquidar + Pemetrexed; first compound 0.03162 µM): 0.0545
relative viability (Zosuquidar + Pemetrexed; first compound 0.1 µM): 0.0685
relative viability (Zosuquidar + Pemetrexed; first compound 0.3162 µM): 0.0617
relative viability (Zosuquidar + Pemetrexed; first compound 1 µM): 0.0615
relative viability ([1]; first compound 0.02 µM): 0.941
relative viability ([1]; first compound 0.06325 µM): 0.89
relative viability ([1]; first compound 0.2 µM): 0.83
relative viability ([1]; first compound 0.6325 µM): 0.805
relative viability ([1]; first compound 2 µM): 0.797

EPLC-272H
relative viability (Zosuquidar + AZD7762; first compound 0.01 µM): 0.233
relative viability (Zosuquidar + AZD7762; first compound 0.03162 µM): 0.154
relative viability (Zosuquidar + AZD7762; first compound 0.1 µM): 0.29
relative viability (Zosuquidar + AZD7762; first compound 0.3162 µM): 0.32
relative viability (Zosuquidar + AZD7762; first compound 1 µM): 0.222
relative viability (Zosuquidar + OSI-027; first compound 0.01 µM): 0.275
relative viability (Zosuquidar + OSI-027; first compound 0.03162 µM): 0.335
relative viability (Zosuquidar + OSI-027; first compound 0.1 µM): 0.273
relative viability (Zosuquidar + OSI-027; first compound 0.3162 µM): 0.31
relative viability (Zosuquidar + OSI-027; first compound 1 µM): 0.275
relative viability (Zosuquidar + Pemetrexed; first compound 0.01 µM): 0.376
relative viability (Zosuquidar + Pemetrexed; first compound 0.03162 µM): 0.317
relative viability (Zosuquidar + Pemetrexed; first compound 0.1 µM): 0.357
relative viability (Zosuquidar + Pemetrexed; first compound 0.3162 µM): 0.404
relative viability (Zosuquidar + Pemetrexed; first compound 1 µM): 0.363
relative viability ([1]; first compound 0.02 µM): 1.3
relative viability ([1]; first compound 0.06325 µM): 1.05
relative viability ([1]; first compound 0.2 µM): 1.03
relative viability ([1]; first compound 0.6325 µM): 1.06
relative viability ([1]; first compound 2 µM): 1.17

A-427
relative viability (Zosuquidar + AZD7762; first compound 0.01 µM): 0.759
relative viability (Zosuquidar + AZD7762; first compound 0.03162 µM): 0.798
relative viability (Zosuquidar + AZD7762; first compound 0.1 µM): 0.693
relative viability (Zosuquidar + AZD7762; first compound 0.3162 µM): 0.764
relative viability (Zosuquidar + AZD7762; first compound 1 µM): 0.705
relative viability (Zosuquidar + OSI-027; first compound 0.01 µM): 0.409
relative viability (Zosuquidar + OSI-027; first compound 0.03162 µM): 0.511
relative viability (Zosuquidar + OSI-027; first compound 0.1 µM): 0.4
relative viability (Zosuquidar + OSI-027; first compound 0.3162 µM): 0.507
relative viability (Zosuquidar + OSI-027; first compound 1 µM): 0.501
relative viability (Zosuquidar + Pemetrexed; first compound 0.01 µM): 1.01
relative viability (Zosuquidar + Pemetrexed; first compound 0.03162 µM): 0.996
relative viability (Zosuquidar + Pemetrexed; first compound 0.1 µM): 0.806
relative viability (Zosuquidar + Pemetrexed; first compound 0.3162 µM): 1.02
relative viability (Zosuquidar + Pemetrexed; first compound 1 µM): 0.796
relative viability ([1]; first compound 0.02 µM): 1.12
relative viability ([1]; first compound 0.06325 µM): 1.1
relative viability ([1]; first compound 0.2 µM): 1.08
relative viability ([1]; first compound 0.6325 µM): 1.1
relative viability ([1]; first compound 2 µM): 1.13

— the supplement of paper PMC10307832
